Assays:
Experiment in all cases: cells
HT-1197 cells = details: Homo sapiens, HT1197, 72 h, read-out: IC50 (microM) (HT1197)
Protocol: (§1) To evaluate the expression status of PBK in several cell lines, western blot analysis was performed using crude cell lysate collected from those cells.
(§2) 100 micro-L of cell suspension was seeded onto 96-well microtiter plate (ViewPlate-96FTC, PerkinElmer). […] Cellular growth was determined using Cell Counting Kit-8 (DOJINDO) at 72 hours after the exposure of the candidate inhibitors. […] Accurate IC50 values were calculated as described previously.

BT-549 cells = details: Homo sapiens, BT-549, 72 h, read-out: IC50 (microM) (BT549)
Protocol: as §1, §2

T47D cells = details: Homo sapiens, 72 h, read-out: IC50 (microM) (T47D)
Protocol: as §1, §2

SMILES | IC50 (HT-1197 cells) [µM] | IC50 (BT-549 cells) [µM] | IC50 (T47D cells) [µM]
O=C(N[C@H]1CCCNC1)c1ccc(O)c2[nH]c(C3CC3)nc12 [Example 9, (S)-2-cyclopropyl-4-hydroxy-N-(piperidin-3-yl)-1H-benzo[d]imidazole-7-carboxamide] | 7.1 | 0.73 | 1.5
O=C(N[C@@H]1CCCNC1)c1ccc(O)c2[nH]c(-c3cccs3)nc12 [Example 37, (R)-7-Hydroxy-N-(piperidin-3-yl)-2-(thiophen-2-yl)-1H-benzo[d]imidazole-4-carboxamide] | > 100 | 20 | 11
O=C(NC1CCNC1)c1ccc(O)c2[nH]c(-c3cccs3)nc12 (stereo not drawn) [Example 44, 7-Hydroxy-N-(pyrrolidin-3-yl)-2-(thiophen-2-yl)-1H-benzo[d]imidazole-4-carboxamide] | > 100 | 15 | 20
NC1CCCC(NC(=O)c2ccc(O)c3[nH]c(C4CC5CCC4C5)nc23)C1 (stereo not drawn) [Example 55, N-(3-Aminocyclohexyl)-2-(bicyclo[2.2.1]heptan-2-yl)-7-hydroxy-1H-benzo[d]imidazole-4-carboxamide] | 74 | 2.9 | 9.1
N[C@H]1CC[C@@H](CNC(=O)c2ccc(O)c3[nH]c(C4CC5CCC4C5)nc23)CC1 (stereo partly drawn) [Example 56, N-{[(cis)-4-Aminocyclohexyl]methyl}-2-(bicyclo[2.2.1]heptan-2-yl)-7-hydroxy-1H-benzo[d]imidazole-4-carboxamide] | 61 | 10 | 30
O=C(NCC1CCCCN1)c1ccc(O)c2[nH]c(-c3ccccc3)nc12 (stereo not drawn) [Example 18, 4-Hydroxy-2-phenyl-N-(piperidin-2-ylmethyl)-1H-benzo[d]imidazole-7-carboxamide] | 98 | 31 | 15
O=C(N[C@H]1CCCNC1)c1ccc(O)c2[nH]c(-c3cccs3)nc12 [Example 38, (S)-7-Hydroxy-N-(piperidin-3-yl)-2-(thiophen-2-yl)-1H-benzo[d]imidazole-4-carboxamide] | 33 | 0.46 | 0.36
O=C(NC[C@@H]1CCCNC1)c1ccc(O)c2[nH]c(Cc3cccs3)nc12 [Example 58, (R)-7-hydroxy-N-(piperidin-3-ylmethyl)-2-(thiophen-2-ylmethyl)-1H-benzo[d]imidazole-4-carboxamide] | 21 | 13 | 24
NC12CC3CC(C1)CC(NC(=O)c1ccc(O)c4[nH]c(C5CC6CCC5C6)nc14)(C3)C2 (stereo not drawn) [Example 53] | 24 | 4.6 | 5.2
CN1CCCC(NC(=O)c2ccc(O)c3[nH]c(-c4cccs4)nc23)C1 (stereo not drawn) [Example 41, 7-Hydroxy-N-(1-methylpiperidin-3-yl)-2-(thiophen-2-yl)-1H-benzo[d]imidazole-4-carboxamide] | 24 | 8.1 | 9.8
NC12CC3CC(C1)CC(NC(=O)c1ccc(O)c4[nH]c(-c5cccs5)nc14)(C3)C2 [Example 54, 2-(Thiophene-2-yl)-7-hydroxy-N-(adamantate-3-ylamino)-1H-benzo[d]imidazole-4-carboxamide] | 10 | 3.3 | 1.6
O=C(NCC1CCCCN1)c1ccc(O)c2[nH]c(C3CC3)nc12 (stereo not drawn) [Example 7, 2-Cyclopropyl-4-hydroxy-N-(piperidin-2-ylmethyl)-1H-benzo[d]imidazole-7-carboxamide] | > 100 | 9.5 | 11
O=C(NCC1CCCNC1)c1ccc(O)c2[nH]c(C3CC4CCC3C4)nc12 (stereo not drawn) [Example 48, 2-(Bicyclo[2.2.1]heptan-2-yl)-7-hydroxy-N-(piperidin-3-ylmethyl)-1H-benzo[d]imidazole-4-carboxamide] | ≥ 100 | 20 | 49
O=C(N[C@H]1CCCNC1)c1ccc(O)c2[nH]c(Cc3cccs3)nc12 [Example 59, (S)-7-hydroxy-N-(piperidin-3-yl)-2-(thiophen-2-ylmethyl)-1H-benzo[d]imidazole-4-carboxamide] | 76 | 2.9 | 11
N[C@H]1CC[C@H](NC(=O)c2ccc(O)c3[nH]c(-c4cccs4)nc23)CC1 [Example 47, N-(4-Aminocyclohexyl)-7-hydroxy-2-(thiophen-2-yl)-1H-benzo[d]imidazole-4-carboxamide] | 58 | 5.3 | 6.2
O=C(NC1CCCNC1)c1ccc(O)c2[nH]c(C3CC4CCC3C4)nc12 (stereo not drawn) [Example 49, 2-(Bicyclo[2.2.1]heptan-2-yl)-7-hydroxy-N-(piperidin-3-yl)-1H-benzo[d]imidazole-4-carboxamide] | 14 | 0.65 | 4.1
O=C(NC1CCNCC1)c1ccc(O)c2[nH]c(-c3cccs3)nc12 [Example 40, 7-Hydroxy-N-(piperidin-4-yl)-2-(thiophen-2-yl)-1H-benzo[d]imidazole-4-carboxamide] | > 100 | 73 | 13
O=C(N[C@H]1CCCNC1)c1ccc(O)c2[nH]c(-c3ccc(Br)s3)nc12 [Example 51, (S)-2-(5-bromothiophen-2-yl)-7-hydroxy-N-(piperidin-3-yl)-1H-benzo[d]imidazole-4-carboxamide] | 5.7 | 0.18 | 0.14
O=C(N[C@H]1CCCNC1)c1ccc(O)c2[nH]c(C3CCCC3)nc12 [Example 16, (S)-2-Cyclopentyl-4-hydroxy-N-(piperidin-3-yl)-1H-benzo[d]imidazole-7-carboxamide] | 19 | 0.37 | 2.6
O=C(NC[C@H]1CCCNC1)c1ccc(O)c2[nH]c(Cc3cccs3)nc12 [Example 60, (S)-7-hydroxy-N-(piperidin-3-ylmethyl)-2-(thiophen-2-ylmethyl)-1H-benzo[d]imidazole-4-carboxamide] | 33 | 49 | 42
O=C(NC1CCCNC1)c1ccc(O)c2[nH]c(C3CC3)nc12 (stereo not drawn) [Example 11, 2-cyclopropyl-4-hydroxy-N-(piperidin-3-yl)-1H-benzo[d]imidazole-7-carboxamide] | 44 | 1.6 | 3.2
O=C(NCC1CCCNC1)c1ccc(O)c2[nH]c(C3CCCC3)nc12 (stereo not drawn) [Example 15, 2-Cyclopentyl-4-hydroxy-N-(piperidin-3-ylmethyl)-1H-benzo[d]imidazole-7-carboxamide] | > 100 | 25 | 21
O=C(NCC1CCCCN1)c1ccc(O)c2[nH]c(-c3cccs3)nc12 (stereo not drawn) [Example 45, 7-Hydroxy-N-(piperidin-2-ylmethyl)-2-(thiophen-2-yl)-1H-benzo[d]imidazole-4-carboxamide] | > 100 | 29 | 7.8
O=C(NCC1CCCNC1)c1ccc(O)c2[nH]c(C3CC3)nc12 (stereo not drawn) [Example 6, 2-Cyclopropyl-4-hydroxy-N-(piperidin-3-yl-methyl)-1H-benzo[d]imidazole-7-carboxamide] | > 100 | 30 | 55
O=C(NC1CCNC1)c1ccc(O)c2[nH]c(C3CC3)nc12 (stereo not drawn) [Example 12, 2-cyclopropyl-4-hydroxy-N-(pyrrolidin-3-yl)-1H-benzo[d]imidazole-7-carboxamide] | > 100 | 47 | 58
O=C(N[C@H]1CCCNC1)c1ccc(O)c2[nH]c(C3CC4CCC3C4)nc12 (stereo partly drawn) [Example 52, 2-(Bicyclo[2.2.1]heptan-2-yl)-7-hydroxy-N-((S)-piperidin-3-yl)-1H-benzo[d]imidazole-4-carboxamide] | 19 | 0.43 | 2.3
O=C(NC1CCCNC1)c1ccc(O)c2[nH]c(-c3cccs3)nc12 (stereo not drawn) [Example 35, 7-Hydroxy-N-(piperidin-3-yl)-2-(thiophen-2-yl)-1H-benzo[d]imidazole-4-carboxamide] | 49 | 0.77 | 0.81
O=C(NC1CCNCC1)c1ccc(O)c2[nH]c(C3CC3)nc12 [Example 10, 2-cyclopropyl-4-hydroxy-N-(piperidin-4-yl)-1H-benzo[d]imidazole-7-carboxamide] | > 100 | 20 | 19
O=C(N[C@H]1CCCNC1)c1ccc(O)c2[nH]c(-c3ccc(N4CCNCC4)s3)nc12 [Example 57, (S)-7-hydroxy-2-(5-(piperazin-1-yl)thiophen-2-yl)-N-(piperidin-3-yl)-1H-benzo[d]imidazole-4-carboxamide] | 33 | 1.1 | 1.1
O=C(NCC1CCCNC1)c1ccc(O)c2[nH]c(-c3cccs3)nc12 (stereo not drawn) [Example 39, 7-Hydroxy-N-(piperidin-3-ylmethyl)-2-(thiophen-2-yl)-1H-benzo[d]imidazole-4-carboxamide] | > 100 | 15 | 8.6

Source: patent US20110263566A1 (priority 2008, published 2011)
